Test results published in publication PMC4685510, “A Cell Biologist’s Field Guide to Aurora Kinase Inhibitors” (Frontiers in Oncology, 2015).

Experiments:
Assay in all cases: biochemical
Assay type in all cases: biochemical
[1] = molecular target: T1, 363 human kinases (including Aurora A/B/C) (Homo sapiens, UniProt O15146); details: MUSK; for remaining activity at 0.1 µM: 100 nM; for remaining activity at 0.1 µM / remaining activity at 0.5 µM: read-out: % Enzyme Activity (relative to DMSO controls)
T1 sequence (O15146 24-869): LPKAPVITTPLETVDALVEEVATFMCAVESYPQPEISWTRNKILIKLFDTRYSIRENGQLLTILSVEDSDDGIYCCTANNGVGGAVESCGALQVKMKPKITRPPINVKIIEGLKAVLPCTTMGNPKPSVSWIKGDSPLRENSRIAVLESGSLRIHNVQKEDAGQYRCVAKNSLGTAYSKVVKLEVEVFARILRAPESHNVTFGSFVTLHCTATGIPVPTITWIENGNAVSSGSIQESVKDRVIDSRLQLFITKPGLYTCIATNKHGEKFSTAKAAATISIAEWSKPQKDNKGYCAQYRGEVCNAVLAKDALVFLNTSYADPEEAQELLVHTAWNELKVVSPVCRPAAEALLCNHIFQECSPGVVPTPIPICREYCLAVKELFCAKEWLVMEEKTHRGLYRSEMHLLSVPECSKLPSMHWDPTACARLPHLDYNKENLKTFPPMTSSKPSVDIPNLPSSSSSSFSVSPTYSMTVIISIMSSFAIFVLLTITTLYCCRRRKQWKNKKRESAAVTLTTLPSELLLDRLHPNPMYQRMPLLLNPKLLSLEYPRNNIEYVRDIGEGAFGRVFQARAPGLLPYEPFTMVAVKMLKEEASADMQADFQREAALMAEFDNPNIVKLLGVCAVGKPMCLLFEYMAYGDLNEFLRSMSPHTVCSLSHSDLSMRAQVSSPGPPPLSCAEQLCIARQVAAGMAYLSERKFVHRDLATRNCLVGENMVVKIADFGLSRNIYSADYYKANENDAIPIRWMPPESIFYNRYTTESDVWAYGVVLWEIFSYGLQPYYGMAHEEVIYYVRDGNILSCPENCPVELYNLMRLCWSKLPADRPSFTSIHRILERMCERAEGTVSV
Text: (§1) However, the Aurora A/B selectivity ratios derived from our in vitro and in vivo data can be compared to prioritize inhibitors.

[2] = molecular target: 363 human kinases (including Aurora A/B/C) (Homo sapiens, UniProt P05771); details: PKCb1; for remaining activity at 0.1 µM: 100 nM; for remaining activity at 0.1 µM / remaining activity at 0.5 µM: read-out: % Enzyme Activity (relative to DMSO controls)
Text: as §1

[3] = molecular target: 363 human kinases (including Aurora A/B/C) (Homo sapiens, UniProt P07333); details: FMS; for remaining activity at 0.1 µM: 100 nM; for remaining activity at 0.1 µM / remaining activity at 0.5 µM: read-out: % Enzyme Activity (relative to DMSO controls)
Text: as §1

[4] = molecular target: 363 human kinases (including Aurora A/B/C) (Homo sapiens, UniProt P42684); details: ABL2/ARG, [ATP] 30 µM; for remaining activity at 0.1 µM: 100 nM; for remaining activity at 0.1 µM / remaining activity at 0.5 µM: read-out: % Enzyme Activity (relative to DMSO controls)
Text: as §1

[5] = molecular target: 363 human kinases (including Aurora A/B/C) (Homo sapiens, UniProt P48729); details: CK1a1, [ATP] 20 µM; for remaining activity at 0.1 µM: 100 nM; for remaining activity at 0.1 µM / remaining activity at 0.5 µM: read-out: % Enzyme Activity (relative to DMSO controls)
Text: as §1

[6] = molecular target: T2, 363 human kinases (including Aurora A/B/C) (Homo sapiens, UniProt Q05513); details: PKCzeta; for remaining activity at 0.1 µM: 100 nM; for remaining activity at 0.1 µM / remaining activity at 0.5 µM: read-out: % Enzyme Activity (relative to DMSO controls)
T2 sequence (Q05513 1-592): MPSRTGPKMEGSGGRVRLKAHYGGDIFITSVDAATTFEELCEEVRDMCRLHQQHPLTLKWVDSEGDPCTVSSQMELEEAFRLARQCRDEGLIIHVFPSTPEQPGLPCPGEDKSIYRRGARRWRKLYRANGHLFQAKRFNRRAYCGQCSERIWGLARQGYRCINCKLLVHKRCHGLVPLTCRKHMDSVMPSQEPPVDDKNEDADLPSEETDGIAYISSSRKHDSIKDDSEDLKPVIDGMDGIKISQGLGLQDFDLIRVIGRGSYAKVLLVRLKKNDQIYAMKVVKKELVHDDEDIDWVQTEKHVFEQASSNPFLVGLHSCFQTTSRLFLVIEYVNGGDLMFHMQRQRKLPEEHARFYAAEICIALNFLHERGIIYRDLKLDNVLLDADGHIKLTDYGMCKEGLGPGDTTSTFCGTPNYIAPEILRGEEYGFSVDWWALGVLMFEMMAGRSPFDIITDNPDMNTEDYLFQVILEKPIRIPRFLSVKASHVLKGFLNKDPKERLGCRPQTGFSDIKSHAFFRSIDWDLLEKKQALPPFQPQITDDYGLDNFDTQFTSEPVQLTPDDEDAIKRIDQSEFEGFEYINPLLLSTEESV
Text: as §1

[7] = molecular target: 363 human kinases (including Aurora A/B/C) (Homo sapiens, UniProt Q07002); details: CDK18/cyclin Y (PCTK3), [ATP] 50 µM; for remaining activity at 0.1 µM: 100 nM; for remaining activity at 0.1 µM / remaining activity at 0.5 µM: read-out: % Enzyme Activity (relative to DMSO controls)
Text: as §1

[8] = molecular target: T3, 363 human kinases (including Aurora A/B/C) (Homo sapiens, UniProt Q13043); details: MST1/STK4; for remaining activity at 0.1 µM: 100 nM; for remaining activity at 0.1 µM / remaining activity at 0.5 µM: read-out: % Enzyme Activity (relative to DMSO controls)
T3 sequence (Q13043 1-487): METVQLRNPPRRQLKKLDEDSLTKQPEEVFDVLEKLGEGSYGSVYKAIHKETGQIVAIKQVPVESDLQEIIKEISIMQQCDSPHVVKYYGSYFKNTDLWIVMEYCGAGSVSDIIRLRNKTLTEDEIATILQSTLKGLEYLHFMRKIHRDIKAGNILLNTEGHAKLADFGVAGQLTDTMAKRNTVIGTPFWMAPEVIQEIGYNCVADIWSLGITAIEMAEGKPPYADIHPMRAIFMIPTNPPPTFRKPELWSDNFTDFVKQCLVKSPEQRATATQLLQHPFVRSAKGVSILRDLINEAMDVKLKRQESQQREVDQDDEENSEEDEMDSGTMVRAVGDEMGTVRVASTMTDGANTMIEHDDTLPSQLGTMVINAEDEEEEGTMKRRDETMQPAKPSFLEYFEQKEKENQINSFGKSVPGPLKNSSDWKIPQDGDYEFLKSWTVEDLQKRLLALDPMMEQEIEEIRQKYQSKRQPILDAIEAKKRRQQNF
Text: as §1

[9] = molecular target: 363 human kinases (including Aurora A/B/C) (Homo sapiens, UniProt Q15569); details: TESK1; for remaining activity at 0.1 µM: 100 nM; for remaining activity at 0.1 µM / remaining activity at 0.5 µM: read-out: % Enzyme Activity (relative to DMSO controls)
Text: as §1

[10] = molecular target: 363 human kinases (including Aurora A/B/C) (Homo sapiens, UniProt Q6P5Z2); details: PKN3/PRK3; for remaining activity at 0.1 µM: 100 nM; for remaining activity at 0.1 µM / remaining activity at 0.5 µM: read-out: % Enzyme Activity (relative to DMSO controls)
Text: as §1

[11] = molecular target: 363 human kinases (including Aurora A/B/C) (Homo sapiens, UniProt Q9H792); details: PEAK1; for remaining activity at 0.1 µM: 100 nM; for remaining activity at 0.1 µM / remaining activity at 0.5 µM: read-out: % Enzyme Activity (relative to DMSO controls)
Text: as §1

Chain of 363 human kinases (including Aurora A/B/C) (Homo sapiens, UniProt P07333) (P07333 20-972): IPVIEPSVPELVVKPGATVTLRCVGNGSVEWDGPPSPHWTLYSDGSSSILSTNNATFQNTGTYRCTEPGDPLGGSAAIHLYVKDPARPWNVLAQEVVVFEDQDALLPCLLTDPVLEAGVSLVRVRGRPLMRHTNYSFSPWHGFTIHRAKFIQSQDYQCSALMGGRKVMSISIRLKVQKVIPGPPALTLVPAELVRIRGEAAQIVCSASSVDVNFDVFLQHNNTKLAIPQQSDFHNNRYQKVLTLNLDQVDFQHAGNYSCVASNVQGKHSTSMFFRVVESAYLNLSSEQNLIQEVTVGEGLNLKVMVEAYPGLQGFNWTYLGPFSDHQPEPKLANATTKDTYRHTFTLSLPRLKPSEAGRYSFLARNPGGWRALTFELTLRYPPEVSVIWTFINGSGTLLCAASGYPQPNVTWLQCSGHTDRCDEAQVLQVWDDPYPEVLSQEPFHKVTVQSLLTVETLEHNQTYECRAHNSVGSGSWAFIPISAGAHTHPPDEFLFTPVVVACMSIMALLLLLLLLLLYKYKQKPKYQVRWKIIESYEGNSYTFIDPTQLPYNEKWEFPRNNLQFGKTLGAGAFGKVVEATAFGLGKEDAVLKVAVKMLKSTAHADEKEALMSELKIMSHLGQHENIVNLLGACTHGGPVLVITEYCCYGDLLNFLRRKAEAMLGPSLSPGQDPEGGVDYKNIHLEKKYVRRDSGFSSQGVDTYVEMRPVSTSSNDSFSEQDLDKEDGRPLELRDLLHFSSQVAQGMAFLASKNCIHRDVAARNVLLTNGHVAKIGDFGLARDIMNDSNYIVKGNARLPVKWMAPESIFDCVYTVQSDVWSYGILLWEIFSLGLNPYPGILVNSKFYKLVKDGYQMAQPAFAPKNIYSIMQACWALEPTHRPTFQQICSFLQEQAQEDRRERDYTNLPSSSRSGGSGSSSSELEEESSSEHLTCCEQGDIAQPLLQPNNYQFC
Chain of 363 human kinases (including Aurora A/B/C) (Homo sapiens, UniProt P42684) (P42684 whole entry): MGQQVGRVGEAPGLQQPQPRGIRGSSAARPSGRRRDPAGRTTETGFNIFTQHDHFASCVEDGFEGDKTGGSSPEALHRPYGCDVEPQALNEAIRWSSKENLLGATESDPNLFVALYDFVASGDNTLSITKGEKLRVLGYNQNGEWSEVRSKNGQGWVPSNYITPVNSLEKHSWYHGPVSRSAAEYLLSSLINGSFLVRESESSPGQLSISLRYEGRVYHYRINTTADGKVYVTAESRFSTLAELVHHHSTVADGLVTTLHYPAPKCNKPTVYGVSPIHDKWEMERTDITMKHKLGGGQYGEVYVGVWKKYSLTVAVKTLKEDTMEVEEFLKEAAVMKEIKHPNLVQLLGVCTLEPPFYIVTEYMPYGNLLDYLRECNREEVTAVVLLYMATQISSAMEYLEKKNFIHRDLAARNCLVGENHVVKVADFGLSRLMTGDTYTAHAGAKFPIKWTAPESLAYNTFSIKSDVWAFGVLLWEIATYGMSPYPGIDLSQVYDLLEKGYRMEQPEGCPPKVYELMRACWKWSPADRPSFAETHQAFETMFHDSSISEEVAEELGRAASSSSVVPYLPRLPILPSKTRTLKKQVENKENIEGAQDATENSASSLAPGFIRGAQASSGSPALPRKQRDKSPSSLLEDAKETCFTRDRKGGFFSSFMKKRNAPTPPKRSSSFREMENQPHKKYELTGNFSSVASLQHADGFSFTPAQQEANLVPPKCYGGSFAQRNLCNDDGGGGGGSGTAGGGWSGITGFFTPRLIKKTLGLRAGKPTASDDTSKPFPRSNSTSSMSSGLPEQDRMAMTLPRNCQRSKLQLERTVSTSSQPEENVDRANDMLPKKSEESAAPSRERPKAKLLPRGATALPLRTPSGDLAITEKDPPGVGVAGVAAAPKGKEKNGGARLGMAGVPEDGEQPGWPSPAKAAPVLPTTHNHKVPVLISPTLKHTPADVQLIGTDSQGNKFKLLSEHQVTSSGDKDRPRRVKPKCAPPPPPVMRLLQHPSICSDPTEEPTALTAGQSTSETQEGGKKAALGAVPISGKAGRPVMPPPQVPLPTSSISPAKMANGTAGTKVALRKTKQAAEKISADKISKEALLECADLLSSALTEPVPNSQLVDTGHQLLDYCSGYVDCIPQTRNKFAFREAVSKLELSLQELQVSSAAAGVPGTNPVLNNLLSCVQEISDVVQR
Chain of 363 human kinases (including Aurora A/B/C) (Homo sapiens, UniProt Q6P5Z2) (Q6P5Z2 whole entry): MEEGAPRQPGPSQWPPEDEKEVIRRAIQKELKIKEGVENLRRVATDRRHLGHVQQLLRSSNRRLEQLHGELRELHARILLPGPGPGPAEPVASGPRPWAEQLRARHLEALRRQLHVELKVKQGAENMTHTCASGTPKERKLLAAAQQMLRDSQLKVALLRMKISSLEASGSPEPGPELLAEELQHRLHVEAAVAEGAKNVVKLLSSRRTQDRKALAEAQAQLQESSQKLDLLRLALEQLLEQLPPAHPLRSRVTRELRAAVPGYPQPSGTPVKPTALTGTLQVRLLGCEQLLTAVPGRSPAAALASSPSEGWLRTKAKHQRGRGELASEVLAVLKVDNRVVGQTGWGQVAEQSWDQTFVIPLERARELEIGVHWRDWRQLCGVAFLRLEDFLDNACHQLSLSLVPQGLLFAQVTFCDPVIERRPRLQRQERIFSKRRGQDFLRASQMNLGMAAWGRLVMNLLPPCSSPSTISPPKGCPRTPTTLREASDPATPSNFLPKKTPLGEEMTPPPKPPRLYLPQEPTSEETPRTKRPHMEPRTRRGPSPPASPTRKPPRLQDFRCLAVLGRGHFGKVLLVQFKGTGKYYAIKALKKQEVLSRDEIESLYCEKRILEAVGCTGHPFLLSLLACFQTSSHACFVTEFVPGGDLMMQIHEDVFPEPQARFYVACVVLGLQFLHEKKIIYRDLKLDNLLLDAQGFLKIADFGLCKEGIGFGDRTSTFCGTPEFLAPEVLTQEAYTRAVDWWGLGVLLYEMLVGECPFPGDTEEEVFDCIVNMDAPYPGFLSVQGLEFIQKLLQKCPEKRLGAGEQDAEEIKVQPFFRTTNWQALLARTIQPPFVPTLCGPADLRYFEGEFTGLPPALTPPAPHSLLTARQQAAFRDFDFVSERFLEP
Chain of 363 human kinases (including Aurora A/B/C) (Homo sapiens, UniProt Q15569) (Q15569 whole entry): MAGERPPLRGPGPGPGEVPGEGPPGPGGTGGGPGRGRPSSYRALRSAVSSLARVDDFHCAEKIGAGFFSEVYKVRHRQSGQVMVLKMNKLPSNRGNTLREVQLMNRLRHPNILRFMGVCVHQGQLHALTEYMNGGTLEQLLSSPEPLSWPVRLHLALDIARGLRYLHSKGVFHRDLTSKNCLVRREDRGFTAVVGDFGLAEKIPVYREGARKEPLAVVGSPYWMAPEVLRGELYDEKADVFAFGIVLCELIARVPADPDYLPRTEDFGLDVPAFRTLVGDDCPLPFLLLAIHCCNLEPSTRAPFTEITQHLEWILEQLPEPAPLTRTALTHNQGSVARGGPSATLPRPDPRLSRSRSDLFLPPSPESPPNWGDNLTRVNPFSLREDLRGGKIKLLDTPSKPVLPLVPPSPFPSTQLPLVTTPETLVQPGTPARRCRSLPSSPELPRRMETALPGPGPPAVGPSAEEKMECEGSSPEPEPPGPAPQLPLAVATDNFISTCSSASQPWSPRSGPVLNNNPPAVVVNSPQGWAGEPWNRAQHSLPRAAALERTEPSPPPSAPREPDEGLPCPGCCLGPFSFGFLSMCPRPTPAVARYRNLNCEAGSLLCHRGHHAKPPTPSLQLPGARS
Chain of 363 human kinases (including Aurora A/B/C) (Homo sapiens, UniProt P05771) (P05771 whole entry): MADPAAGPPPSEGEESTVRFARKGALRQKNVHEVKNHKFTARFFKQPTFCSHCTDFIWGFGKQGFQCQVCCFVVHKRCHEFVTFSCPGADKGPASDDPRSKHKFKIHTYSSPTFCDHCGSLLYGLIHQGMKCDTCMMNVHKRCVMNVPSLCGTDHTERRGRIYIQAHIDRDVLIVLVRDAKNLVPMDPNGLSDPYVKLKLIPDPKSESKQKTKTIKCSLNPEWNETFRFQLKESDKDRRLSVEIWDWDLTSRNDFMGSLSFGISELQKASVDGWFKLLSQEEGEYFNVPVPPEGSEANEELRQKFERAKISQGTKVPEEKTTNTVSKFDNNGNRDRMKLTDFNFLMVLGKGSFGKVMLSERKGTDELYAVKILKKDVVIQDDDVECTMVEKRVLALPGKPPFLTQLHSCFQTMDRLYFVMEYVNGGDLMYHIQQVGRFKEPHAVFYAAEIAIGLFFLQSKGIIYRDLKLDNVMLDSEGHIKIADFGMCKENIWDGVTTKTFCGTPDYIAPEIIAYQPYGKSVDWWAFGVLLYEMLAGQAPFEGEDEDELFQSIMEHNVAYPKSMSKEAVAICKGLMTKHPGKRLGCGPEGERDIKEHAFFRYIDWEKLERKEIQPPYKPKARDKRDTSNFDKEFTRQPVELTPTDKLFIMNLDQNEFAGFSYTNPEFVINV
Chain of 363 human kinases (including Aurora A/B/C) (Homo sapiens, UniProt P48729) (P48729 whole entry): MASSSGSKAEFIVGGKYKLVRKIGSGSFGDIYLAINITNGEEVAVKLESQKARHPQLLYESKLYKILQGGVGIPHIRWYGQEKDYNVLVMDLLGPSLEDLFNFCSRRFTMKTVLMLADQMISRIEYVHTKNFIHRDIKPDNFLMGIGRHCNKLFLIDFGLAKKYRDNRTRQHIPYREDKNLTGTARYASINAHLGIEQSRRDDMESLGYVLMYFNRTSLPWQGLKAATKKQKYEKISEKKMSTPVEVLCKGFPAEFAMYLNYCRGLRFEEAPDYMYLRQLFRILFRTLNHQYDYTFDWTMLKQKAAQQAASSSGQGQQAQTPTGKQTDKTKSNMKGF

Structure (SMILES) | remaining activity at 0.1 µM [1] | remaining activity at 0.1 µM [2] | remaining activity at 0.1 µM [3] | remaining activity at 0.1 µM [4] | remaining activity at 0.1 µM [5] | remaining activity at 0.1 µM [6] | remaining activity at 0.1 µM [7] | remaining activity at 0.1 µM [8] | remaining activity at 0.1 µM [9] | remaining activity at 0.1 µM [10] | remaining activity at 0.1 µM [11] | remaining activity at 0.5 µM ([1]; 500 nM) | remaining activity at 0.5 µM ([2]; 500 nM) | remaining activity at 0.5 µM ([3]; 500 nM) | remaining activity at 0.5 µM ([4]; 500 nM) | remaining activity at 0.5 µM ([5]; 500 nM) | remaining activity at 0.5 µM ([6]; 500 nM) | remaining activity at 0.5 µM ([7]; 500 nM) | remaining activity at 0.5 µM ([8]; 500 nM) | remaining activity at 0.5 µM ([9]; 500 nM) | other results
CCn1cc(-c2ccnc3[nH]c(-c4cccc(CN(C)C)c4)cc23)c(-c2ccc(NC(=O)N(C)C)cc2)n1 [GSK1070916] | 96% | 98.6% | 80.2% | 94.2% | 103% | 106% | 107% | 105% | 103% | 107% | 90% | – | – | – | – | – | – | – | – | – | –
O=C(c1cccc(Cl)c1F)N1CCN(Cc2cccc(Nc3nccs3)n2)CC1 [MK-8745] | – | – | – | – | – | – | – | – | – | – | – | 95.3% | 98.2% | 95% | 85.8% | 99.8% | 97.1% | 107% | 46.6% | 99.9% | % Enzyme Activity (relative to DMSO controls) ([1]; 500 nM): 94.70%; % Enzyme Activity (relative to DMSO controls) ([2]; 500 nM): 96.23%; % Enzyme Activity (relative to DMSO controls) ([3]; 500 nM): 92.34%; % Enzyme Activity (relative to DMSO controls) ([4]; 500 nM): 85.19%; % Enzyme Activity (relative to DMSO controls) ([5]; 500 nM): 99.17%; % Enzyme Activity (relative to DMSO controls) ([6]; 500 nM): 96.81%; % Enzyme Activity (relative to DMSO controls) ([7]; 500 nM): 106.28%; % Enzyme Activity (relative to DMSO controls) ([8]; 500 nM): 46.49%; % Enzyme Activity (relative to DMSO controls) ([9]; 500 nM): 97.82%; % Enzyme Activity (relative to DMSO controls) ([10]; 500 nM): 100.01%; remaining activity at 0.5 µM ([10]; 500 nM): 100%; % Enzyme Activity (relative to DMSO controls) ([11]; 500 nM): 38.63%; remaining activity at 0.5 µM ([11]; 500 nM): 39.1%
O=C(O)[C@]1(Cc2cccc(Nc3nccs3)n2)CC[C@@H](Oc2cccc(Cl)c2F)CC1 [MK-5108] | 104% | 87.4% | 78.2% | 12.2% | 89% | 99.2% | 85.9% | 81.8% | 97.9% | 90.8% | 30.5% | 71.9% | 74% | 51.9% | 2.32% | 101% | 99.2% | 108% | 65.6% | 99.8% | remaining activity at 0.5 µM ([10]; 500 nM): 88.2%; remaining activity at 0.5 µM ([11]; 500 nM): 11.6%
